Measurements published in article PMC4742190, “Mitotic entry: Non-genetic heterogeneity exposes the requirement for Plk1” (Oncotarget, 2015).

Columns and labels:
Experiment in all cases: enzyme (kinase) assay
Type in all cases: biochemical
Plk3 = Plk3 (Homo sapiens, UniProt Q9H4B4)
Plk2 = Plk2 (Homo sapiens, UniProt Q9NYY3)
Plk1 = Plk1 (Homo sapiens, UniProt P53350)
Chain of Plk1 (P53350 2-603): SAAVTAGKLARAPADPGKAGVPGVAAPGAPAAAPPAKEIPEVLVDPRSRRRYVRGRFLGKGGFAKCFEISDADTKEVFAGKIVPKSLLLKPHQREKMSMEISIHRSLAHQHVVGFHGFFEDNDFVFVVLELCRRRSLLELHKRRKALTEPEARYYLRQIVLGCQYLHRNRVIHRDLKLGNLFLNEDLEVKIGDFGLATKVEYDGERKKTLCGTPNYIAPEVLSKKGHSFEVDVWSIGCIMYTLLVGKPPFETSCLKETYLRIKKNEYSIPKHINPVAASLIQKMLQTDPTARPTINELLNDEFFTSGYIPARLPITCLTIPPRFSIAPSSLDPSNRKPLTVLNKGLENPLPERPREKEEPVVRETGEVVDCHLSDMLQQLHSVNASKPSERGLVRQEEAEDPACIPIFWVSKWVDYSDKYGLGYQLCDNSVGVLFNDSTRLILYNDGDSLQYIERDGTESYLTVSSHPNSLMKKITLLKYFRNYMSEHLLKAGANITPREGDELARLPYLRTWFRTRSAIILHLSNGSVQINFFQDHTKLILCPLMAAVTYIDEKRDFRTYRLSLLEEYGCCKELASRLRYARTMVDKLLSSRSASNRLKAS

Chain of Plk2 (Q9NYY3 whole entry): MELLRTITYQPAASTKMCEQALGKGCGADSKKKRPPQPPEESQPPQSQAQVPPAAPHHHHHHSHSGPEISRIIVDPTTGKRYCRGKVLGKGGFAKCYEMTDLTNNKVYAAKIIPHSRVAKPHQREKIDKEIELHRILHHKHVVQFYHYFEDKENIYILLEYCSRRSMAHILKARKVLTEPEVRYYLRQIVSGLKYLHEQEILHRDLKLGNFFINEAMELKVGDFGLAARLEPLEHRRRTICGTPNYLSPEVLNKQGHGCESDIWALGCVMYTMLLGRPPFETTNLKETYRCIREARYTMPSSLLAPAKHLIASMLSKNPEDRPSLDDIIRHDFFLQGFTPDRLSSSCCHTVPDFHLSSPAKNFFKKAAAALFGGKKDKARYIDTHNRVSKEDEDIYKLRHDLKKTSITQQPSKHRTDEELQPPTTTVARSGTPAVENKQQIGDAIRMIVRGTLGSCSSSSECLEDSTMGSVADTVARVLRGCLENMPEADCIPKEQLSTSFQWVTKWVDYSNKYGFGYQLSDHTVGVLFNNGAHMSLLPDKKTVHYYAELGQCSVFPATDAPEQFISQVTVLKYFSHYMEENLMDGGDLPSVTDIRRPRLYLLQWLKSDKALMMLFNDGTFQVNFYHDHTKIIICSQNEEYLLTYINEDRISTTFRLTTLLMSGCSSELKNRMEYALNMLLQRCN
Chain of Plk3 (Q9H4B4 whole entry): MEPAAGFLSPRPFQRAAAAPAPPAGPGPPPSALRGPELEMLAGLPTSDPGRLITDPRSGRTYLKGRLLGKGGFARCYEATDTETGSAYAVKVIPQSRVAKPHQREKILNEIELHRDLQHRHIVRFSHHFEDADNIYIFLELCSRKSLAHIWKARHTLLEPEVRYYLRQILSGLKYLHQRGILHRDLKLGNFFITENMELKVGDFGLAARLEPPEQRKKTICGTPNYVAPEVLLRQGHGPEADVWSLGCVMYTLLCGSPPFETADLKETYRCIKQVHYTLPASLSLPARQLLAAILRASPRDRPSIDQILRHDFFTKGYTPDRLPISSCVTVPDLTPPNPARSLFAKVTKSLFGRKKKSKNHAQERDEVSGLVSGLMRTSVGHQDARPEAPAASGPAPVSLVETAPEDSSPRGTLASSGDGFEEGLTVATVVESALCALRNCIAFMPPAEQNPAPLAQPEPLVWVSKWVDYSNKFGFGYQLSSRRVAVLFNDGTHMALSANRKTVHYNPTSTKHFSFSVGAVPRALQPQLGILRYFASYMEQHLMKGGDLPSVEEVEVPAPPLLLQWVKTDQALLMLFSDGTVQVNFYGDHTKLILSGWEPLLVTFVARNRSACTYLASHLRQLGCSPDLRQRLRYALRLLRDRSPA

CYC140844 gave an IC50 (Plk3) of 702 nM, an IC50 (Plk2) of 113 nM and an IC50 (Plk1) of 36 nM.
